Measured values published in patent US12410228B2, “Insulin analogs” (UNIVERSITY OF UTAH RESEARCH FOUNDATION, priority 2016, dated 2025).

Key:
human IR (isoform B) = biological target: T1, human IR (isoform B) (Homo sapiens, UniProt P06213); test: biochemical; assay type: binding
T1 construct: expressed in transfected cells; host or cells: R- IR-B cells, lysed with Triton X-100 and captured with anti-IR antibody 83-7; This comes from the general description of the Denley et al. 2004 format

human IR-B = biological target: T2, human IR-B (Homo sapiens, UniProt P06213); test: cell-based
T2 construct: expressed in transfected cells; host or cells: NIH 3T3 mouse fibroblasts overexpressing human IR-B (puromycin selection)

fish = test: Effect on fish (injection or presence in the water); assay type: in vivo
[1] = relative to insulin; Bao et al. 1997; cited from earlier work
hIR = hIR (Homo sapiens, UniProt P06213); test: hIR activation / insulin signalling activation by DOI analogues and venom insulins (Example 11, FIGS. 22-27); assay type: cell-based

CC[C@H](C)[C@@H]1NC(=O)[C@H](CC(C(=O)O)C(=O)O)NC(=O)[C@H](CO)NC(=O)CNC(=O)[C@@H](NC(=O)[C@H](CCCNC(=N)N)NC(=O)[C@H](Cc2c[nH]cn2)NC(=O)[C@H](CCCCN)NC(=O)[C@@H]2C[C@@H](O)CN2C(=O)[C@@H](NC(=O)[C@H](CC(=O)O)NC(=O)[C@H](Cc2ccccc2)NC(=O)[C@@H](N)[C@@H](C)O)[C@@H](C)O)CSSC[C@@H]2NC(=O)[C@@H](NC(=O)[C@H](Cc3c[nH]cn3)NC(=O)[C@H](CC(C(=O)O)C(=O)O)NC(=O)[C@@H](NC(=O)[C@@H](NC(=O)CN)C(C)C)C(C)C)C[Se][Se]C[C@H](NC(=O)[C@@H]3CCCN3C(=O)[C@H](CCCNC(=N)N)NC(=O)[C@H](Cc3c[nH]cn3)NC2=O)C(=O)N[C@@H](CO)C(=O)N[C@@H](CC(N)=O)C(=O)N[C@@H](C)C(=O)N[C@@H](CCC(=O)O)C(=O)N[C@@H](Cc2ccccc2)C(=O)N[C@@H](CCCCN)C(=O)N[C@@H](CCCCN)C(=O)N[C@@H](Cc2ccc(O)cc2)C(=O)N[C@H](C(N)=O)CSSC[C@@H](C(=O)N[C@@H](Cc2ccc(O)cc2)C(=O)N[C@@H](CCCNC(=N)N)C(=O)O)NC(=O)[C@H](CC(C)C)NC(=O)[C@H](CC(=O)O)NC(=O)[C@H](CCSC)NC(=O)[C@H](Cc2ccc(O)cc2)NC(=O)[C@H](CO)NC(=O)[C@H](CC(N)=O)NC(=O)[C@H]([C@@H](C)O)NC1=O [sCon-Ins G1]
IC50 (human IR (isoform B)): 17.4 nM | activity / affinity at human IR relative to human insulin (fold less) (human IR (isoform B)): thirty-fold less active | activity against the human IR-B relative to PTM-free analogue (human IR (isoform B)): four times more active | EC50 (human IR-B): 7.94 nM | efficiency of inducing Akt phosphorylation relative to PTM-free analogue (human IR-B): eight-fold greater efficiency | hypoglycemic effect in fish (fish; injected into fish): induces hypoglycemic shock | effect on fish motility (fish; present in the water): slows fish motility

DOI: monomeric analogue lacking residues 23 to 30 of the B chain of human insulin [reference compound]
bioactivity preserved [1]: less than 0.1% | potency in hIR activation, comparison in words (hIR): same | potency relative to human insulin (fold weaker) (hIR; relative to human insulin): 1,000 fold

hIns[TyrB15, TyrB20, DOI]: des-octapeptide human insulin with Tyr at B15 and B20
activity in Akt phosphorylation assay relative to hIns[DOI] (human IR-B): ca five-fold more active

quadruple DOI mutant: DOI analogue with A8 His, A9 Arg, B10 Glu and B20 Tyr; A chain SEQ ID NO: 39, B chain SEQ ID NO: 30
potency in hIR activation, comparison in words (hIR): comparable to that of human insulin
